Measurements: patent US8436020B2, “Processes for the preparation of piperidinic derivatives and pharmaceutic compositions containing the same” (priority 2004, dated 2013)
“And” between values parts separate entries of the source, which are not always exact repeats. Equal values may be shown once. “Also recorded” adds a separate entry of the source. Read-outs that look alike come from different tables or passages of the source.

What was measured:
[1] = molecular target: cholinesterase in homogenized rat brain (Rattus norvegicus, UniProt P37136); conditions: for IC50: rat brain homogenate
cholinesterase in homogenized rat brain, sequence (P37136 32-614): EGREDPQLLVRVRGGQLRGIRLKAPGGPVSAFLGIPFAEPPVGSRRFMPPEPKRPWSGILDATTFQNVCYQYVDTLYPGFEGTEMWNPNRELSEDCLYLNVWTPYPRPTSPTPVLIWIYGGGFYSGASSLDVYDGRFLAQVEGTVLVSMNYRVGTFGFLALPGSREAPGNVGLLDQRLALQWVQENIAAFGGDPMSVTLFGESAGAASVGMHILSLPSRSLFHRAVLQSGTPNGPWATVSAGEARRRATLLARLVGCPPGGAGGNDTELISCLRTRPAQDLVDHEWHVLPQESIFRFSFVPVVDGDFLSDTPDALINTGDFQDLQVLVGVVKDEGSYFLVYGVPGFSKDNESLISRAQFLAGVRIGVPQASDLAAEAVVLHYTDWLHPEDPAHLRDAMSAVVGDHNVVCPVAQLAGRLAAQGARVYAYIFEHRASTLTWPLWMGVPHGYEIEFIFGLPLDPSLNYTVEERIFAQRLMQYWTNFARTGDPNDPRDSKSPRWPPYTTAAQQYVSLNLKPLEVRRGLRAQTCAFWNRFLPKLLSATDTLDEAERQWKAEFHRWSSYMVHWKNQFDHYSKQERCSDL
Procedure: In all experiments, cholinesterase-independent substrate hydrolysis (non specific) was determined by the inclusion of an experimental group treated with THA 20 μM. Appropriate tissues and reagents (em branco) were also included. Reaction velocities were determined in 3 or 4 repetitions by condition; mean values were calculated and expressed as percentages of relative activity in respect to control (solvent), after subtraction of the non-specific hydrolysis rate. The substances were tested in at least five different concentrations. From the resulting inhibition curve, values in the ranges […] 20%-80% were considered, with concentration limited to 500 μM. The IC50, based in a single-site model, was determined via linear regression.

[2] = test system: amnesia induced by scopolamine; assay: Amnesia induced by scopolamine in the Morris water maze; format: in vivo, Wistar rats; conditions: rats, scopolamine 1 mg/kg, 4 days test
Procedure: A total of 39 Wistar rats (females—±200 g) were used.
After 30 minutes of intraperitoneal second administration (saline or scopolamine), the animals were challenged to localize an underwater platform in a round recipient containing opaque water (water maze) and the escape latency (in seconds) was computed. […] Tests were conducted twice a day, during 4 consecutive days.
When treated with scopolamine 30 minutes before the challenge, the animals could not learn the task and the escape latency approaches maximum values (150 s) in the fourth day of the test.

[3] = test system: amnesia induced by scopolamine; assay: Amnesia induced by scopolamine in the inhibitory avoidance assay; format: in vivo, Swiss mice; conditions: mice
Source text: A total of 120 adult male (25-30 g) Swiss mice were used. The animals were submitted to the inhibitory avoidance assay, which consists of a box with a base made of a grid connected to an electrostimulator (0.6 mA/3 s), and containing a wood platform (3 cm^3). Mice were put over this platform; being computed the latency (in seconds) until the animals put the four paws over the grid. In the first day of the test (“training”), animals would receive an adverse electrical stimulus (0.6 mA/3 s) whenever they stepped down to the grid (step down latency—SDL). At this stage, animals that would stay more than 15 seconds over the platform were discarded. Twenty-four hours later, the animals were re-introduced over the platform and the SDL computed (“retention”).

[4] = format: in vivo, mice
[5] = Cholinergic side effects (diarrhea) 30 minutes after administration, rats; format: in vivo
Source text: Results from this assay can be seen in FIGS. 8-9.

[6] = Water solubility of the chlorhydrate derivatives
AChE [7] = molecular target: T1, AChE (Homo sapiens, UniProt P22303); conditions: read-out: IC50, AChE; cited from earlier work
T1 sequence (P22303 32-614): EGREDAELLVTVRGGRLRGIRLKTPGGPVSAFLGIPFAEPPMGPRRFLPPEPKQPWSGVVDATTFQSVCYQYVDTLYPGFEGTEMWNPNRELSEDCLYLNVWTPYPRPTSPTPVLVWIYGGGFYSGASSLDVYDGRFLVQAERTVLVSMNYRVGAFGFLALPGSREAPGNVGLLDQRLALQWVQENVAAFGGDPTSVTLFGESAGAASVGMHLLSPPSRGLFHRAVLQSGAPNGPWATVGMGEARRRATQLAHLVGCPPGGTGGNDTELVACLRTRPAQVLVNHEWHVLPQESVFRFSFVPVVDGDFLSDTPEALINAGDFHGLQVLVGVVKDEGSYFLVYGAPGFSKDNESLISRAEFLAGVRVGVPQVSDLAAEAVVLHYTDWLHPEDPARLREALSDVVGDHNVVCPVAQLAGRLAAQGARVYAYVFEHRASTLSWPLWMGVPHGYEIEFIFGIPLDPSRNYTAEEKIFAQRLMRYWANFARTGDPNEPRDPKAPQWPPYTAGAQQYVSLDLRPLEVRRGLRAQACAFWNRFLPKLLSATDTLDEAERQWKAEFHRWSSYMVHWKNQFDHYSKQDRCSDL

BuChE = BuChE (Homo sapiens, UniProt P06276); conditions: arisugacines and cyclopenine: no BuChE inhibition at this multiple; cyclophostin: BuChE inhibited at this multiple; cited from earlier work
BuChE, sequence (P06276 29-602): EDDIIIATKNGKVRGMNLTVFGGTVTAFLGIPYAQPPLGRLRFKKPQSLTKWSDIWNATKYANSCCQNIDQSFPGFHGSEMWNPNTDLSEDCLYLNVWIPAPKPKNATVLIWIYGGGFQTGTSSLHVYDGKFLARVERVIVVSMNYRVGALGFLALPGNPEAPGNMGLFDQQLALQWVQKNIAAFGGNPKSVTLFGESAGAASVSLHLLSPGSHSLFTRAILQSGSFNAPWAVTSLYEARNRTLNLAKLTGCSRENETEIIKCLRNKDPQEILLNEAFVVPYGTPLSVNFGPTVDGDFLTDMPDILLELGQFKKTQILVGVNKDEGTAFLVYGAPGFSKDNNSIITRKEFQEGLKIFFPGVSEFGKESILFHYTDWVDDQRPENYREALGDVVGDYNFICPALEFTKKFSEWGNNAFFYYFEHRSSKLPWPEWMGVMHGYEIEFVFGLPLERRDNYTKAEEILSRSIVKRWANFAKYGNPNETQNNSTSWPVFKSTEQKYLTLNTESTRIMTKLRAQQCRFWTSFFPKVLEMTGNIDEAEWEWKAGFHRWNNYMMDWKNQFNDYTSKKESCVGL

AChE [8] = molecular target: T1, AChE; conditions: cited from earlier work; for IC50: read-out: IC50 AChE, tacrine as positive control
[9] = molecular target: butyrylcholinesterase (BuChE) (Homo sapiens, UniProt P06276); conditions: read-out: IC50 BuChE; cited from earlier work
butyrylcholinesterase (BuChE), sequence (P06276 29-602): as above

AChE [10] = molecular target: T1, AChE; conditions: cited from earlier work
AChE [11] = molecular target: T1, AChE; conditions: read-out: IC50, AChE activity; cited from earlier work
AChE [12] = molecular target: T1, AChE; conditions: read-out: IC50, anticholinesterasic activity; cited from earlier work
[13] = read-out: Experimental IC50, cerebral cholinesterase inhibition, single independent experiment (one animal), acetylthiocholine 1 mM
[14] = read-out: Mean IC50, cerebral cholinesterase inhibition, mean of N independent experiments

CC(=O)CCCCCCCCCCCC[C@H]1CC[C@@H](OC(C)=O)[C@@H](C)N1.Cl [LASSBio-767, 2-(R)-methyl-3-(R)—O-acetyl-6-(S)-(tetradecyl-13′-one)-piperidine chlorhydrate]
AChE inhibitory capacity ex vivo [1]: remarkable anticholinesterasic activity
IC50 [1, 13]: 4.82 µM and 4.49 µM
IC50 [1, 14]: 4.65 µM
Reversion of amnesia induced by scopolamine, escape latency in water maze ([2]; 1 mg/kg): superior effect in relation to tacrine in the reversion of the induced amnesia by scopolamine
Reversion of amnesia induced by scopolamine, escape latency in water maze ([2]; 10 mg/kg): also observed
Reversion of amnesia induced by scopolamine, step down latency ([3]; 1 and 10 mg/kg, scopolamine 1 mg/kg): do not differ from the ones treated only with scopolamine; also recorded: did not present any effect on the amnesia induced by scopolamine
Cholinergic side effects and motor activity ([4]; 10 mg/kg): no cholinergic side effects and no interference in the motor activity
Occurrence of diarrhea [5]: Only animals treated with tacrine presented diarrhea
Solubility in water [6]: water-soluble

CC(=O)CCCCCCCCCCCC[C@H]1CC[C@@H](O)[C@@H](C)N1.Cl [LASSBio-768, Espectaline Chlorhydrate]
AChE inhibitory capacity ex vivo [1]: remarkable anticholinesterasic activity
IC50 [1, 13]: 195 µM and 278 µM
IC50 [1, 14]: 236 µM
Solubility in water [6]: water-soluble

CC(=O)O[C@@H]1CC[C@H](CCCCCCCCCCCCC(C)O)N[C@@H]1C (stereo partly drawn) [LASSBio-783, (2R,3R,6S)-3-acetoxy-6-(13-hydroxy-tetradecyl-2-methyl)-piperidine chlorhydrate]
IC50 [1, 13]: 333 µM and 702 µM and 242 µM
IC50 [1, 14]: 426 µM

CC(=O)CCCCCCCCCCCC[C@H]1CC[C@@H](OC(=O)OC(C)(C)C)[C@@H](C)N1.Cl [LASSBio-822, 2-(R)-methyl-3-(R)—O-ter-butoxycarbonyl-6-(S)-(tetradecyl-13′-one)-piperidine chlorhydrate]
AChE inhibitory capacity ex vivo [1]: remarkable anticholinesterasic activity
IC50 [1, 13]: 9.15 µM and 16.2 µM and 19.9 µM
IC50 [1, 14]: 15.1 µM
Reversion of amnesia induced by scopolamine, escape latency in water maze ([2]; 1 mg/kg): not capable of antagonize the amnesia induced by scopolamine
Reversion of amnesia induced by scopolamine, step down latency ([3]; 1 and 3 mg/kg, scopolamine 1 mg/kg): significant partial reversion of the amnesia induced by scopolamine; also recorded: capable of a significant reversion of the amnesia induced by scopolamine
Solubility in water [6]: water-soluble

Nc1c2c(nc3ccccc13)CCCC2 [Tacrine, tacrine, reference compound]
Reversion of amnesia induced by scopolamine, escape latency in water maze ([2]; 1 mg/kg): antagonize the induced amnesia by scopolamine, a significant effect in the fourth day of the study
Reversion of amnesia induced by scopolamine, step down latency ([3]; 5.6 mg/kg): complete reversion of the amnesia induced by scopolamine; also recorded: totally reversed the effect of scopolamine
Mice with diarrhea and urination ([4]; 10 mg/kg I.P., mice): 70%
Other side effects observed ([4]; 10 mg/kg I.P., mice): hypothermia and diminished motor activity
Cholinergic side effect parameters ([4]; concentrations superior to 30 mg/kg, mice): all checked parameters are altered
Animals with diarrhea ([5]; 1 mg/kg): 100%

CN1C(=O)c2ccccc2NC(=O)[C@]12O[C@@H]2c1ccccc1 [cyclopenine]
IC50 (AChE [7]): 2040 nM
Concentration tested on BuChE as a multiple of the AChE IC50 (selectivity) (BuChE): > 2,000 times

CO[P@]1(=O)OC[C@H]2COC(=O)C2=C(C)O1 [cyclophostin]
IC50 (AChE [7]): 1.3 nM
Concentration tested on BuChE as a multiple of the AChE IC50 (selectivity) (BuChE): 35 times

CC[C@H](C)[C@H]1NC(=O)c2c1n(C)c1ccccc1c2=O [quinolactacin A1]
IC50 (AChE [8]): 280 µM

CC[C@H](C)[C@@H]1NC(=O)c2c1n(C)c1ccccc1c2=O [quinolactacin A2]
Inhibitory AChE activity relative to diastereoisomer A1 (AChE [8]): 14 times
IC50 (AChE [8]): 19.8 µM
IC50 [9]: 650 µM

COc1cc(-c2cc3c(c(=O)o2)C[C@]2(O)[C@@]4(C)C(=O)C=CC(C)(C)[C@]4(O)CC[C@@]2(C)O3)cc(OC)c1OC [territrem B]
IC50 (AChE [7]): 7.6 nM
Potency relative to neostigmine in AChE inhibition (AChE [10]): approximately 20 times

COc1cc(-c2cc3c(c(=O)o2)C[C@]2(O)[C@@]4(C)C(=O)C=CC(C)(C)[C@]4(O)CC[C@@]2(C)O3)cc(OC)c1O [territrem C]
IC50 (AChE [7]): 6.8 nM

C/C(=C\CNc1ncnc2nc[nH]c12)CO [zeatine]
IC50 (AChE [11]): 109 µM

C=C1CC[C@H]2C(C)(C)[C@@H](O)CC[C@]2(C)[C@H]1CC[C@H]1C(=C)CC[C@H]2C(C)(C)[C@@H](O)CC[C@]12C [α-onocerine, α-onocerin]
IC50 (AChE [12]): 5.2 µM
